According to patent publication US6432963B1, “Pyrimidine-5-carboxamide derivatives” (Yamanouchi Pharmaceutical Co., Ltd., priority 1997, dated 2002):
Structures can show the parent of a compound that is named as a salt.

Molecular target: T1, Syk tyrosine kinase (Homo sapiens, UniProt P43405)
T1 construct: FLAG tag (8 amino acid residues) (C); made in house; host or cells: Sf-9 insect cells (baculovirus, pFASTBAC HT)
Assay: Syk tyrosine kinase inhibition test (SPA system)
Assay type: biochemical
Conditions: His-tag fused human Syk, Band 3 peptide, [γ-33P]ATP, room temperature 1 hour; read-out: inhibition activity as IC50 value upon Syk tyrosine kinase

IC50 | SMILES
≤ 100 nM | NC(=O)c1cnc(NC2CCCCC2N)nc1Nc1cc(Cl)cc(Cl)c1 (stereo not drawn) [2-(cis-2-aminohexylamino)-4-(3,5-dichloroanilino)pyrimidine-5-carboxamide dihydrochloride]
≤ 100 nM | NCCNc1ncc(C(N)=O)c(Nc2cccc([N+](=O)[O-])c2)n1 [2-(2-aminoethylamino)-4-(3-nitroanilino)pyrimidine-5-carboxamide]
≤ 100 nM | NCCNc1ncc(C(N)=O)c(Nc2cccc(C(F)(F)F)c2)n1 [2-(2-aminoethylamino)-4-(3-trifluoromethylanilino)pyrimidine-5-carboxamide]
≤ 100 nM | NCCNc1ncc(C(N)=O)c(Nc2ccc3ccccc3c2)n1 [2-(2-aminoethylamino)-4-(2-naphthylamino)pyrimidine-5-carboxamide]
